# “And” between values parts separate entries of the source, which are not always exact repeats. Equal values may be shown once.
# Test system: 874868-142-R-J2-PDC complex spheroids, growth % test/control
# Assay: Anticancer human tumor 874868-142-R-J2-PDC patient-derived head and neck squamous carcinoma cell line growth inhibition [CLK]
# Conditions: for viability, T/C: stronger effect = lower value; for IC50: curve of compound
# Source text: A high-throughput screen of multi-cell type tumor spheroids was designed to identify active combinations of […] and targeted small molecules. Complex spheroids include a stromal component modeled by human endothelial cells (HUVEC) and fibroblasts modeled by human mesenchymal stem cells (MSCs). The concentration ranges selected for each drug and investigational agent were based upon clinically achievable concentrations if the clinical Cmax of the agent was known.
# Compounds. The drugs and investigational agents: cirtuvivint (SM08502; NSC835563), CC-671 (NSC850746), vemurafenib (NSC761431), tapotoclax (NSC804041), sotorasib (NSC818433), adagrasib (NSC831453), MRTX-1133 (NSC836407), BAY2416964 (NSC825713), copanlisib (NSC816437), inavolisib (NSC800729), abemaciclib (NSC768073), osimertinib (NSC779217), entinostat (NSC756642), eltanexor (KPT-8602, NSC794443), venetoclax (NSC766270), ceralasertib (NSC777638), bortezomib (NSC756655), olaparib (NSC753686), talazoparib (NSC767125), alisertib (NSC759677), peposertib (NSC802822), gemcitabine (NSC613327), 5-fluorouracil (NSC19893), SN-38 (NSC673596), oxaliplatin (NSC266046), paclitaxel (NSC125973), and doxorubicin (NSC123127), were obtained from the National Cancer Institute (NCI) Developmental Therapeutics Program Chemical Repository. The FDA-approved anticancer drug set is available from the Developmental Therapeutics Program at https://dtp.cancer.gov/organization/dscb/obtaining/available plates.htm. […] The stock solutions were prepared in dimethyl sulfoxide (DMSO, Sigma-Aldrich, St. Louis, MO, cat. D2650), except for the platinum complexes which were prepared in saline (Quality Biological, Gaithersburg, MD, cat. 114-055-101), at 800-fold the tested concentration and stored at -70 degrees C prior to their use. All drugs and investigational agents were tested over a range starting from a high concentration at or near the clinical Cmax and decreasing in half-log increments. If the clinical Cmax for an agent had not been determined, the highest concentration tested was 10 microM.
# Cell Culture. All cells were maintained in an incubator at 37 degrees C and 5% CO2 with 95% humidity. The PDC lines were cultured according to standard operating procedures established by the NCI PDMR. Briefly, all PDCs were thawed and cultured in Matrigel-coated flasks prepared with a working solution of 1X Ham's F-12 nutrient mix, without supplementation (Invitrogen, Waltham, MA, cat. 11765054), 100 U/mL penicillin-streptomycin (Invitrogen, cat. 15140122), and 2.5% Matrigel (Corning Inc., Corning, NY, cat. 354248) for the first three passages. The 947758-054-R-J2-PDC line was cultured in 6B/Colon 1A media, which includes advanced DMEM/F-12 (Thermo Fisher Scientific, cat. 12634028), 10 mM HEPES (Thermo Fisher Scientific, cat. 15630080), 1X GlutaMAX supplement (Thermo Fisher Scientific, cat. 35050061), 0.1 mg/mL primocin (InvivoGen, cat. ant-pm-2), 10% defined fetal bovine serum, heat inactivated (HyClone Laboratories Inc., cat. SH30070.03HI), 1.25 mM N-Acetyl-L-cysteine (Sigma-Aldrich, cat. A9165), 10 mM nicotinamide (Sigma-Aldrich, cat. N0636), 1X B-27 supplement (Thermo Fisher Scientific, cat. 17504044), 1X N-2 supplement (Thermo Fisher Scientific, cat. 17502048), and 10 microM Y-27632 dihydrochloride (Tocris Bioscience, cat. 1254). The 876862-298-R-J1-PDC was cultured in 6E media, which includes all 6B/Colon 1A media components plus 50% L-WRN conditioned media (ATCC, cat. CRL-3276), 50 ng/mL recombinant human EGF recombinant protein (hEGF; Thermo Fisher Scientific, cat. PHG0311), 10 ng/mL recombinant human fibroblast growth factor 10 (hGFG-10; PeproTech, cat. 100-26), 1 ng/mL recombinant human fibroblast growth factor 2 (hFGF-2; PeproTech, cat. 100-18B), and 1 µM prostaglandin E2 (PGE2; Tocris, cat. 2296). The 227483-062-R1-J1-PDC line was cultured in Panc media, containing all 6E components except hFGF-2, with the addition of 500 nM SB-431542 (Selleckchem, cat. S1067) and 10 nM gastrin (Tocris, cat. 3006). […]
# 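Also: spheroids exposed to the compounds for 7 days.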
Compound,"viability, T/C (compound 0.0316 µM)","viability, T/C (compound 0.1 µM)","viability, T/C (compound 0.316 µM)","viability, T/C (compound 1 µM)","viability, T/C (compound 3.16 µM)","viability, T/C (compound 10 µM)",IC50
CC(=O)O[C@H]1C(=O)[C@@]2(C)[C@H]([C@H](OC(=O)c3ccccc3)[C@]3(O)C[C@H](OC(=O)[C@H](O)[C@@H](NC(=O)c4ccccc4)c4ccccc4)C(C)=C1C3(C)C)[C@]1(OC(C)=O)CO[C@@H]1C[C@@H]2O,24.8% and 41.2%,22.5% and 38.5%,21.1% and 41.4%,28.7% and 47.2%,23.2% and 42.7%,36.4% and 50.2%,< 31.6 nM
CC(CO)NC(=O)c1cc(-c2ccc(Cl)cc2)nn(-c2cnn(C)c2)c1=O (stereo unspecified),102% and 93.8%,95.6% and 100%,97.7% and 89.3%,101% and 94.3%,102% and 94.3%,95.6% and 99.3%,> 10000 nM
CC(Nc1ccc2c(c1)OCCn1cc(N3C(=O)OCC3C(F)F)nc1-2)C(N)=O (stereo unspecified),89.2%,38.7%,28.3%,23.4%,13.5%,13.2%,82.4 nM
CC1(C)CCC(CN2CCN(c3ccc(C(=O)NS(=O)(=O)c4ccc(NCC5CCOCC5)c([N+](=O)[O-])c4)c(Oc4cnc5[nH]ccc5c4)c3)CC2)=C(c2ccc(Cl)cc2)C1,79.2% and 90.1%,104% and 95.1%,97.9% and 100%,101% and 91.3%,93% and 97.6%,84.1% and 44%,> 10000 nM and 8720 nM
CC1COCCN1c1cc(C2(S(C)(=N)=O)CC2)nc(-c2ccnc3[nH]ccc23)n1 (stereo unspecified),93.5% and 84.9%,91.8% and 114%,82.2% and 76%,63.7% and 61.2%,32.2% and 49%,28.2% and 38.6%,1640 nM and 2160 nM
CNC(=O)c1ccc(Nc2nc(OC3CCCC3)c3c(-c4ccc5nc(C)oc5c4)c[nH]c3n2)c(OC)c1,,89.6% [middle of 11 runs],60.3% [middle of 11 runs],50% [middle of 10 runs],44.5% [middle of 11 runs],42.6% [middle of 11 runs],
COc1ccc([C@@H](O)c2cc(-c3ncnc4cc(N5CCOCC5)ccc34)c(F)cc2Cl)nn1,93.7% and 87.2%,92% and 97.7%,84.4% and 85%,67.6% and 79.7%,40.5% and 54.6%,24.7% and 26.3%,2120 nM and 3830 nM
COc1cccc2c1C(=O)c1c(O)c3c(c(O)c1C2=O)CC(O)(C(=O)CO)CC3OC1CC(N)C(O)C(C)O1 (stereo unspecified),74.8% and 74.3%,46.2% and 52.2%,18.9% and 27.4%,3.91% and 6.75%,0.09% and 0.19%,0.19% and 0.2%,86.8 nM and 114 nM
Nc1ccccc1NC(=O)c1ccc(CNC(=O)OCc2cccnc2)cc1,97% and 102%,95.4% and 87.3%,90% and 113%,110% and 124%,95.8% and 101%,36.9% and 26.4%,7730 nM and 6990 nM
